Assays:
[1] = test system: MOLM-13 AML cells (expressing WT SHP2); experiment: Cell viability assay (CellTiter-Glo), MOLM-13; format: cell-based; details: Homo sapiens, MOLM-13, 72 h, regular MOLM-13 cells, CRISPR comparison experiment
Experimental: Next, we performed an 11-day colony formation assay with TNBC cells treated with #02 or SHP099 at 5, 10, or 20 μM (FIG. 3D).
Finally, we evaluated the selectivity of our top two compounds, #01 and #02, on MOLM-13 AML cells in which SHP2 was depleted using CRISPR-Cas9 knock-out (KO). High-efficiency Cas9-editing MOLM-13 cells were generated by transducingMOLM-13 cells with a Cas9 lentiviral construct. Stable clones were tested for editing efficiency by performing TIDE analysis (45), and these MOLM13-Cas9 cells were transduced with a lentiviral construct containing an AAVS1 single guide RNA (sgRNA) and an mCherry reporter for bulk-sorting of cells with successful AAVS1 editing. […] Cells were treated with inhibitors at various concentrations (ranging from […] to 58 nM) or vehicle control (DMSO) for 72 h, before cell viability was assessed.
Viability of AML, esophageal carcinoma, and TF-1 cells was assessed using the ATP-depletion assay CellTiter-Glo® (Promega). Cells were harvested at 1×10^6/mL to 2×10^6 cells/mL with cell numbers determined by trypan blue using the Countess Cell counter (Thermo Scientific) and resuspended in culture media. […] Luminescence was read on a Tecan Spark® Multimode Microplate Reader and data analyzed using Graph Pad Prism software. […]

[2] = test system: patient-derived AML cells; experiment: Viability of AML patient-derived cells; format: cell-based, human; details: 10 μM, two patient samples, 2 d, 4 d, or 6 d
Source text: Patient-derived AML cells were obtained from Carol Burian and Dr. James Mason (Scripps MD Anderson, La Jolla, CA) under approved IRB protocol 13-6180. Peripheral blood mononuclear cells (PBMCs) were isolated by traditional Ficoll-Paque™ PLUS (17-1440-02, GE Healthcare) centrifugation according to the manufacturer's instructions, and red blood cells were lysed using RBC Lysis Buffer (Alfa Aesar, cat. #J62990). Final PBMCs were resuspended in Bambanker serum-free freezing medium (Wako Pure Chemical Industries, Ltd.) and stored frozen before cell viability was assessed as described below.
Viability of AML, esophageal carcinoma, and TF-1 cells was assessed using the ATP-depletion assay CellTiter-Glo® (Promega). Cells were harvested at 1×10^6/mL to 2×10^6 cells/mL with cell numbers determined by trypan blue using the Countess Cell counter (Thermo Scientific) and resuspended in culture media. 3K cells (in […]) were seeded in a 384-well format white, clear bottom microplate (#781098, Greiner) spotted with test compound or vehicle control (DMSO) using an Echo 555 Liquid Handler. […] Luminescence was read on a Tecan Spark® Multimode Microplate Reader and data analyzed using Graph Pad Prism software.

IC50 [1]: 15 µM
SMILES: O=C(Nc1ccccc1)c1cc(-c2ccc(/C=C3\Sc4ccccc4C3=O)o2)ccc1O [#02, (Z)-2-hydroxy-5-(5-((3-oxobenzo[b]thiophen-2(3H)-ylidene)methyl)furan-2-yl)-N-phenylbenzamide]
effect on growth of patient-derived AML samples [2]: inhibited the growth of both AML patient samples
